Data taken from patent EP4775583A1, “COMPOUND OR SALT THEREOF, METHOD FOR PRODUCING SAME, PHARMACEUTICAL COMPOSITION CONTAINING COMPOUND OR SALT THEREOF, AND METHOD FOR PRODUCING SAME” (Celaid Therapeutics Inc., priority 2023, dated 2025).
Entries after “also recorded” stand apart in the source; their conditions may differ. Structures can show the parent of a compound that is named as a salt.

Assays:
[1] = test system: mouse neuroblastoma N2a cells; experiment: Neurite outgrowth assay; assay type: cell-based; settings: for neurite outgrowth / neurite outgrowth-promoting activity, comparison between compounds: 0.2 µM, 48 h treatment (Fig. 21(B)); for neurite outgrowth-promoting activity, comparison between compounds: structure-activity comparison; for dose-dependent neurite outgrowth activity: 0.02 - 2 µM, 48 h treatment (Fig. 21(C))
Description: The Mouse Neuro-2a (N2a) cell line was obtained from the Japanese Collection of Research Bioresources (JCRB) Cell Bank. The N2a cells were plated at a concentration of 1 × 10^4 cells/mL in Dulbecco's modified Eagle's medium (hereinafter also referred to as DMEM) containing high glucose, 10% FBS, 100 U/mL penicillin, and 100 µg/mL streptomycin at 37 °C in a humidified atmosphere of 5% CO2.
For the neurite outgrowth assay, the medium was changed to DMEM supplemented with 2% FBS. After incubation with the test compounds, cell morphology was examined using a microscope (Olympus CKX41).
The differentiated cells were defined as those with at least one neurite that was longer than twice the diameter of the cell body. The results were expressed as the percentage of differentiated cells among the counted cells. These experiments were carried out in triplicate.

H3K27Ac = experiment: Western blot detection of H3K27Ac levels; assay type: cell-based, Mouse; settings: N2a cells, 24 h treatment (Fig. 26)
Description: (§1) The N2a cells (5 × 10^5 cells/2 mL/dish) were treated for 24 h with the test compounds at the indicated concentrations in a 10% FBS-supplemented cell culture medium, and cells were collected and extracted with SDS sampling buffer. Protein concentrations of the lysates were determined using a BCA protein assay. Equivalent amounts of protein from each lysate were resolved in 5% to 20% SDS-polyacrylamide gels, and bands were transferred onto PVDF membranes (Millipore, #IPVH00010 for β-actin detection, #ISEQ10100 for H3, H3K4me3, and H3K27Ac detection). After blocking with TBS-T containing 5% skimmed milk, the transblotted membranes were probed with primary antibodies. The following antibodies were used as the primary antibodies: rabbit monoclonal KDM5A antibody (CST #3876, 1 : 1000 dilution); mouse monoclonal β-actin antibody (Santa Cruz, #sc-47778, 1 : 2000 dilution); rabbit polyclonal H3K4me3 antibody (Abcam, #ab8580, 1 : 5000 dilution); rabbit polyclonal H3K27Ac antibody (Abcam, #ab4729, 1 : 1000 dilution); or rabbit polyclonal histone H3 antibody (Abcam, #ab1791, 1 : 200000 dilution). […]

KDM5A [2] = target: T1, KDM5A (Mus musculus, UniProt Q3UXZ9); experiment: Western blot detection of KDM5A levels (degradation); assay type: cell-based; settings: N2a cells
T1 construct: Western Blot-Detection of KDM5A Levels in N2a Cells; endogenous in cells; host or cells: N2a (mouse neuroblastoma neuro-2a) cells
T1 sequence (Q3UXZ9 whole entry): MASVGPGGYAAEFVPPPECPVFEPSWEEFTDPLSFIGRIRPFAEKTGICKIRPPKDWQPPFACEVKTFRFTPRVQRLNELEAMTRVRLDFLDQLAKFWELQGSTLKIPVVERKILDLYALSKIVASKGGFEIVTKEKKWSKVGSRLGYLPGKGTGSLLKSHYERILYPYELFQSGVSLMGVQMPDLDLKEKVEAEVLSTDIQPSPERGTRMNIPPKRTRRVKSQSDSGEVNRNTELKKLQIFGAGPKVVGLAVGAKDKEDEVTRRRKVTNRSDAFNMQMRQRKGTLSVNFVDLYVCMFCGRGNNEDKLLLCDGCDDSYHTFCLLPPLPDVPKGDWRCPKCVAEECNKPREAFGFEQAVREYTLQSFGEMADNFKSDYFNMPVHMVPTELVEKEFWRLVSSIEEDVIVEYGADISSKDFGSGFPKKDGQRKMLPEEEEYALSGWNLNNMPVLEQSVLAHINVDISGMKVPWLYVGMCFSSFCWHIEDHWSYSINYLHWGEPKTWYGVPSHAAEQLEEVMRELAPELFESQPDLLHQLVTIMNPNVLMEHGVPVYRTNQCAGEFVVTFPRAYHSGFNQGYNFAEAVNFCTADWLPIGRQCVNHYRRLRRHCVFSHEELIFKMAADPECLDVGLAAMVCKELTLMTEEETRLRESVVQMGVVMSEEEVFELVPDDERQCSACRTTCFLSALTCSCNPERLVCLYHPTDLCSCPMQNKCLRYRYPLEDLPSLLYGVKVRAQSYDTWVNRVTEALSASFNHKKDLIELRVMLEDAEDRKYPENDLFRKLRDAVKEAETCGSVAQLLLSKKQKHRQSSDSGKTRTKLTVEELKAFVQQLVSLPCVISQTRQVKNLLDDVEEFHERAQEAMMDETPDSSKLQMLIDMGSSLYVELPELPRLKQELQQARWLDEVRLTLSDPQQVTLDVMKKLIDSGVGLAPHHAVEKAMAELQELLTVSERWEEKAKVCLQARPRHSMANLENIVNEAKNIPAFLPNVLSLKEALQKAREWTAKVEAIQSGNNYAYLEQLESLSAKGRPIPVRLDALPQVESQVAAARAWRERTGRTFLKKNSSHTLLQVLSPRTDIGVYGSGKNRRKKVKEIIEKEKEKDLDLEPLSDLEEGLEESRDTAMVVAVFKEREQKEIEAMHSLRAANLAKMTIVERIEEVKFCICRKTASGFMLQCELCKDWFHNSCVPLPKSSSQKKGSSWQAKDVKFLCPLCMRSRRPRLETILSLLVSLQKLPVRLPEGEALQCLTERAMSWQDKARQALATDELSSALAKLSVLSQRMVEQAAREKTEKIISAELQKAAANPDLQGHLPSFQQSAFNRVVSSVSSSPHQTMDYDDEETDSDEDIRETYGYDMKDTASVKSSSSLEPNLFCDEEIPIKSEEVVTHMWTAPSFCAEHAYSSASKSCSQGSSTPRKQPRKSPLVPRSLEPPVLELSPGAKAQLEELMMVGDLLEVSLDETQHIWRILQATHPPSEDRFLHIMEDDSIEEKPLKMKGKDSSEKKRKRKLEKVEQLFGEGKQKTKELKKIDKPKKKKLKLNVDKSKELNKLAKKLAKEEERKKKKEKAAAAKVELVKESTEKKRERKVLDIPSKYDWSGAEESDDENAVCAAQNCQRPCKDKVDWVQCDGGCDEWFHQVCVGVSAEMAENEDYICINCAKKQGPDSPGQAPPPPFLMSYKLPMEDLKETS
Description: as §1

KDM5A [3] = target: KDM5A (Homo sapiens, UniProt P29375); experiment: KDM5A inhibitory activity, in vitro assay; assay type: biochemical; settings: in vitro assay (Fig. 27)
Chain of KDM5A (Homo sapiens, UniProt P29375) (P29375 whole entry, species assumed): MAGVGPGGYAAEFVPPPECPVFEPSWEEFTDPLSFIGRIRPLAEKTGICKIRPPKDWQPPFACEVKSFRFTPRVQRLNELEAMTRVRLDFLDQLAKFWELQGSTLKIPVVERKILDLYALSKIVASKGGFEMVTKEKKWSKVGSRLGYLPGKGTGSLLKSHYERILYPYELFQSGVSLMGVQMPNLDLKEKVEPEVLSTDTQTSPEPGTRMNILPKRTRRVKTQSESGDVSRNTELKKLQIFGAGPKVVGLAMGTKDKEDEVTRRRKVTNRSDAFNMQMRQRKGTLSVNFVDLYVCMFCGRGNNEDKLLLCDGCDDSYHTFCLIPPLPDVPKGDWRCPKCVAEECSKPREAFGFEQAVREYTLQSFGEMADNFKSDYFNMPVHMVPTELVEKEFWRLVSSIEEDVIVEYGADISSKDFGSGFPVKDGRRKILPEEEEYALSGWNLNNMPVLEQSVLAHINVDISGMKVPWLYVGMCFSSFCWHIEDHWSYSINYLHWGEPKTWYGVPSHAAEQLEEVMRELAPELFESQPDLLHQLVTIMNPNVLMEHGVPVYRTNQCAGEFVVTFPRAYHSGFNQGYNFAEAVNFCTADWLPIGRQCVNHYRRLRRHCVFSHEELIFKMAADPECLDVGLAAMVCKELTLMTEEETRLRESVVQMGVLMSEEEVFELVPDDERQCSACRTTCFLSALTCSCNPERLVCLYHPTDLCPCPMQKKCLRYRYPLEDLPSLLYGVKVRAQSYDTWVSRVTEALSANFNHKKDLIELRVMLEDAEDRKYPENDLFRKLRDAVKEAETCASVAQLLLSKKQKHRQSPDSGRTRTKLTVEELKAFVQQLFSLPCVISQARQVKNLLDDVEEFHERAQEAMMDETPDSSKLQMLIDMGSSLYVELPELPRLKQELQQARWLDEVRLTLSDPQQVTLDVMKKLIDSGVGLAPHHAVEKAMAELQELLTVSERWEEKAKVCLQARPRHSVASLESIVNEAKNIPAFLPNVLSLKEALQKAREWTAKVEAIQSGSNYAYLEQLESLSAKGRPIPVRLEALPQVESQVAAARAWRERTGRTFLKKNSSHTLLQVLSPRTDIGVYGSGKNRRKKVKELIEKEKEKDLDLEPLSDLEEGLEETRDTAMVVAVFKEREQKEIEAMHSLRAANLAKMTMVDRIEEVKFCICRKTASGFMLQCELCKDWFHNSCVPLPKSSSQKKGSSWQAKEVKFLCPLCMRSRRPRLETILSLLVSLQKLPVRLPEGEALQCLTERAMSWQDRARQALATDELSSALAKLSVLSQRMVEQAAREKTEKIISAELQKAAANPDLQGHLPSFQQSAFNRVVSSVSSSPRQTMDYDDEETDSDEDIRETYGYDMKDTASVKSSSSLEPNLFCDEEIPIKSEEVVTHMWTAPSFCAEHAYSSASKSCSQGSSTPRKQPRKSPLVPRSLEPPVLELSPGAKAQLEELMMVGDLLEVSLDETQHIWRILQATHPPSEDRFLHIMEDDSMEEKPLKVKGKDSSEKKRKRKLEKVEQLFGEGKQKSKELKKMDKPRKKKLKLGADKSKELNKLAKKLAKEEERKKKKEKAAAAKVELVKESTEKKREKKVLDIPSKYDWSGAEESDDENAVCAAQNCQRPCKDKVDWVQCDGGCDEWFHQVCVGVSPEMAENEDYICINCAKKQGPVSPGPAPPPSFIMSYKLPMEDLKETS

HDAC1 = HDAC1 (Homo sapiens, UniProt Q13547); experiment: HDAC1 inhibitory activity, in vitro assay; assay type: biochemical; settings: in vitro assay (Fig. 27)
Chain of HDAC1 (Q13547 whole entry, species assumed): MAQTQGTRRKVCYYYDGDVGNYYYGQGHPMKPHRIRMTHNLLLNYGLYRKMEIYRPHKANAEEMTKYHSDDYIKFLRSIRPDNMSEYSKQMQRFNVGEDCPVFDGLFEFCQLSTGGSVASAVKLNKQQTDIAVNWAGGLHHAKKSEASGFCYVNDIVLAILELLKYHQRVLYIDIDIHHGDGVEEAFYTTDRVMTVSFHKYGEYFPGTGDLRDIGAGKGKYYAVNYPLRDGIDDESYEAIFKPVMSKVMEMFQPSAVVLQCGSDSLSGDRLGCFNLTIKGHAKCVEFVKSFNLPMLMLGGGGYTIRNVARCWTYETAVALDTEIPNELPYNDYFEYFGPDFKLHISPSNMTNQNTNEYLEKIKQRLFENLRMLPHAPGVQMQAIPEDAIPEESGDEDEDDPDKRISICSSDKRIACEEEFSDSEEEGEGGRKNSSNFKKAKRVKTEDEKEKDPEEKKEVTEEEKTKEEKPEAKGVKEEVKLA

H3K4me3 = experiment: Western blot detection of H3K4me3 levels; assay type: cell-based, Mouse; settings: N2a cells, 24 h treatment (Fig. 26)
Description: as §1

Question: CC(C)c1c(-c2ccc(CCN(C)CCCCCCC(=O)NCCOCCOCCOc3cccc4c3C(=O)N(C3CCC(=O)NC3=O)C4=O)cc2)[nH]c2c(C#N)cnn2c1=O (centres unmarked) [Compound 14a, hydrochloride] was tested. Which neurite outgrowth ([1]; N2a cells) did it give?
Answer: promoted neurite outgrowth

Question: Which results are given for CC(C)c1c(-c2ccc(CCN(C)CCCCCCCCCC(=O)NCCOCCOCCOc3cccc4c3C(=O)N(C3CCC(=O)NC3=O)C4=O)cc2)[nH]c2c(C#N)cnn2c1=O (centres unmarked) [Compound 14b, 10-{[4-(3-Cyano-6-isopropyl-7-oxo-4,7-dihydropyrazolo[1,5-a]pyrimidin-5-yl)phenethyl](methyl)-amino}-N-{2-[2-(2,6-dioxopiperidin-3-yl)-1,3-dioxoindolin-4-yl]oxy}ethoxy}ethyl}decanamide Hydrochloride]?
Answer: neurite outgrowth ([1]; N2a cells): promoted neurite outgrowth; neurite outgrowth-promoting activity, comparison between compounds ([1]; N2a cells): stronger neurite outgrowth-promoting activity than compound 14a

Question: Which neurite outgrowth ([1]; N2a cells) does the source give for CC(C)c1c(-c2ccc(CCN(C)CCCCCCc3ccc(C(=O)NCCOCCOCCOc4cccc5c4C(=O)N(C4CCC(=O)NC4=O)C5=O)cc3)cc2)[nH]c2c(C#N)cnn2c1=O (centres unmarked) [Compound 20a] here?
Answer: promoted neurite outgrowth

Question: How did the neurite outgrowth ([1]; N2a cells) turn out when CC(C)c1c(-c2ccc(CCN(C)CCCCCCc3ccc(C(=O)NCCCCCCOc4cccc5c4C(=O)N(C4CCC(=O)NC4=O)C5=O)cc3)cc2)[nH]c2c(C#N)cnn2c1=O (centres unmarked) [Compound 23a, 4-(6-{[4-(3-cyano-6-isopropyl-7-oxo-4,7-dihydropyrazolo[1,5-a]pyrimidin-5-yl)phenethyl](methyl)amino}hexyl)-N-(6-{[2-(2,6-dioxopiperidin-3-yl) -1, 3 - dioxoindolin-4-yl]oxy}hexyl) benzamide hydrochloride] was run?
Answer: promoted neurite outgrowth

Question: For CC(C)c1c(-c2ccc(CCN(C)CCCCCCc3cccc(C(=O)NCCCCCCOc4cccc5c4C(=O)N(C4CCC(=O)NC4=O)C5=O)c3)cc2)[nH]c2c(C#N)cnn2c1=O (centres unmarked) [Compound 23b, 3-(6-{[4-(3-Cyano-6-isopropyl-7-oxo-4,7-dihydropyrazolo[1,5-a]pyrimidin-5-yl)phenethyl](methyl)-amino}hexyl)-N-(6-{[2-(2,6-dioxopiperidin-3-yl)-1,3-dioxoindolin-4-yl]oxy}hexyl)benzamide Hydrochloride], which “neurite outgrowth-promoting activity, overall assessment” value ([1]; N2a cells (Fig. 21(B))) is on record?
Answer: remarkable neurite outgrowth-promoting activity

Question: And the “time-dependent neurite outgrowth activity (number of neurite cells)” value ([1]; N2a cells, 0.02 µM, 24, 48 and 72 hours (Fig. 21(D)))?
Answer: increased the number of neurite cells in a time-dependent manner

Question: And the neurite outgrowth ([1]; N2a cells)?
Answer: promoted neurite outgrowth

Question: And the “neurite outgrowth-promoting activity, comparison between compounds” value ([1]; N2a cells, Hydrochloride)?
Answer: superior to those of the para-substituent compounds 20a and 23a; also recorded: slightly better than that of the polyethylene linker compound 20b

Question: And the “dose-dependent neurite outgrowth activity” value ([1]; N2a cells)?
Answer: promoted neurite outgrowth

Question: And the H3K27Ac levels (H3K27Ac)?
Answer: upregulated H3K27Ac levels

Question: What about the “KDM5A levels on co-treatment with proteasome inhibitor MG-132” value (KDM5A [2]; 24 h co-treatment with MG-132 (Fig. 25(C), 25(D))) of the same compound?
Answer: disturbed by the proteasome inhibitor MG-132

Question: What about the KDM5A levels (KDM5A [2]; 24 h treatment (Fig. 25(A), 25(B))) of the same compound?
Answer: decreased KDM5A levels in a dose-dependent manner

Question: And the KDM5A inhibitory activity (KDM5A [3])?
Answer: strongly inhibited KDM5A

Question: What about the HDAC1 inhibitory activity (HDAC1) of the same compound?
Answer: without affecting HDAC1

Question: And the H3K4me3 levels (H3K4me3)?
Answer: dose-dependent accumulation of H3K4me3 levels

Question: For O=C1CCC(N2C(=O)c3ccccc3C2=O)C(=O)N1 (centres unmarked) [Compound 26, thalidomide, reference compound], which “dose-dependent neurite outgrowth activity” value ([1]; N2a cells) is on record?
Answer: did not show strong neurite outgrowth activity relative to Compounds 20b and 23b
